Experimental data published in US6475768B1 (Forskarpatent I Syd AB, priority 2000, dated 2002).
Numbering of substitutions follows the chain as printed.

Experiments:
[1] = target: T1, Thermus thermophilus xylose isomerase, wild type (nucleic acid sequence SEQ ID NO: 2) (Thermus thermophilus, UniProt P26997); test: biochemical
T1 sequence (P26997 1-387): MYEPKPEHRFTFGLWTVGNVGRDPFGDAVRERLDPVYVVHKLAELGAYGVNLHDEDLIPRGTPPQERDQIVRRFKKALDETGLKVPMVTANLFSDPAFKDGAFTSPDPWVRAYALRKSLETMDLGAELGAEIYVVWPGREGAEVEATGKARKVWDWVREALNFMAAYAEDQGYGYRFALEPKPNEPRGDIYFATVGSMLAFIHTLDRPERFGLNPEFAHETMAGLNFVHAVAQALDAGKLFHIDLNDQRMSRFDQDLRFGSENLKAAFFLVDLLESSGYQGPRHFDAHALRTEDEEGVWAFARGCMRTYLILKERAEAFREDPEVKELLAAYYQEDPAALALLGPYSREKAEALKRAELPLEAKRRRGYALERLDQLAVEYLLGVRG

[2] = target: Thermus thermophilus xylose isomerase mutants (1010, 1021, 1024, 1026); test: Inhibition constant for xylitol, mutants compared to wildtype; type: biochemical; conditions: the mutants compared to the wildtype enzyme, xylose 20-400 mM
Protocol: (§1) The cells were harvested by centrifugation in the stationary phase of growth and washed once with ice cold distilled water. Washed cells were resusprended in 100 mM triethanolamine, pH 7.0, 0.5 mg/ml lysozyme (130000 U/mg), 0.25 mg/ml DNase, and 1 mM phenylmethylsulphonyl fluoride (PMSF) in dimethylsulfoxide (DMSO). The suspensions were kept at room temperature for one hour and then on ice for two hours before being put in a freezer at −20° C. The cell lysates were thawed on ice, cell debris was removed by centrifugation (1300 rpm for 15 minutes at 4° C.) and the supernatants were used as the crude enzyme preparations.
The reaction was terminated after 10 minutes by adding 150 μl 50% trichloroaceticacid. The reaction mixture was neutralized with 185 μl 2 M Na2CO3. The formed xylulose or fructose was measured on a COBAS MIRA (Roche) automated spectrophotometer via enzymatic reduction with 0.04 or 0.5 units of Sorbitol Dehydrogenase (purchased from Roche), respectively in the presence of 0.15 mM NADH at pH 7.0, 37° C. in 200 μl reaction volume. The rate of disappearance of NADH was followed at 340 nm and the concentration of D-xylulose or D-fructose was calculated using calibration curves. […] The specific activity (U min^−1 mg^−1) was determined from the activity and the protein concentration of the crude enzyme preparations. […]

[3] = target: Thermus thermophilus xylose isomerase (xylA), mutant 1010 (M1010) (Thermus thermophilus, UniProt P26997); type: biochemical; conditions: read-out: Ki xylitol; mutant 1010, xylose 20-400 mM, fixed xylitol concentrations
Protocol: as §1
(§2) Protein concentration was determined with the Bradford method (Bradford (1976)) using the Pierce protein reagent with bovine serum albumin as standard.
The reaction was terminated after 10 minutes by adding 150 μl 50% trichloroaceticacid. The reaction mixture was neutralized with 185 μl 2 M Na2CO3. The formed xylulose or fructose was measured on a COBAS MIRA (Roche) automated spectrophotometer via enzymatic reduction with 0.04 or 0.5 units of Sorbitol Dehydrogenase (purchased from Roche), respectively in the presence of 0.15 mM NADH at pH 7.0, 37° C. in 200 μl reaction volume. The rate of disappearance of NADH was followed at 340 nm and the concentration of D-xylulose or D-fructose was calculated using calibration curves. […] The specific activity (U min^−1 mg^−1) was determined from the activity and the protein concentration of the crude enzyme preparations.
The kinetic parameters Vmax (μmol min^−1 mg^−1) and Km (mM) were determined from Michaelis-Menten plots of specific activities at various substrate concentrations by nonlinear regression analysis with Sigma Plot (SSPS Inc.) software. Typically, duplicate measurements were used to determine the Km value at 6-10 concentrations of the substrate, with a concentration range covering the value of Km.

[4] = target: T2, Thermus thermophilus xylose isomerase (xylA), mutant 1021 (M1021) (Thermus thermophilus, UniProt P26997, E372G/V379A); test: Kinetic characterisation of mutant xylose isomerase 1021 (xylose/glucose isomerase activity, xylitol inhibition); type: biochemical
T2 construct: made in house; host or cells: E. coli HB101 (crude lysate)
T2 sequence (P26997 1-387 E372G/V379A): T1 sequence (P26997 1-387) with E372G, V379A
Protocol: as §1, §2
The reaction was terminated after 10 minutes by adding 150 μl 50% trichloroaceticacid. The reaction mixture was neutralized with 185 μl 2 M Na2CO3. The formed xylulose or fructose was measured on a COBAS MIRA (Roche) automated spectrophotometer via enzymatic reduction with 0.04 or 0.5 units of Sorbitol Dehydrogenase (purchased from Roche), respectively in the presence of 0.15 mM NADH at pH 7.0, 37° C. in 200 μl reaction volume. The rate of disappearance of NADH was followed at 340 nm and the concentration of D-xylulose or D-fructose was calculated using calibration curves. […]

## OC[C@@H](O)[C@H](O)[C@@H](O)CO [xylitol]
[1]
  Ki: 4.6 mM
[2]
  Ki for xylitol: higher Ki for xylitol
[3]
  Ki: 10.1 mM
[4]
  Ki: 33.2 mM
